Reference: paper PMC8773473, “Lithocholic Acid Amides as Potent Vitamin D Receptor Agonists” (Biomolecules, 2022)
Where two headings read alike, the source gives them in different places.

B1: coactivator peptide (H2N-KNHPMLMNLLKDN-CONH2) derived from DRIP205 (peptide)
peptide: H-KNHPMLMNLLKDN-NH2
notes: also called MED1 peptide; source: synthetic peptide

How the values were obtained:
[1] = tested on: HL-60 cells; test: HL-60 cell differentiation-inducing assay (NBT reduction); format: cell-based, human; conditions: for EC50: Homo sapiens, HL-60, 96 h, read-out: HL-60 Assay EC50
Protocol: The vitamin D activity of the synthesized lithocholic acid amide derivatives was evaluated in terms of cell differentiation-inducing activity toward human acute promyelocytic leukemia cell line HL-60 [12]. HL-60 cell differentiation was evaluated in terms of the ratio of nitroblue tetrazolium (NBT)-positive cells (Figure 3 and Table 1).
Control cells were treated with the same volume of ethanol alone. 1α,25(OH)2D3 was always assayed at the same time as a positive control. The cells were incubated at 37 °C under 5% CO2 in air for 4 days. The percentage of differentiated cells was determined by nitro-blue tetrazolium (NBT) reduction assay. […] The percentage of cells containing blue-black formazan was determined in a minimum of 200 cells. All experiments were done in triplicate.

[2] = target: T1, VDR (Homo sapiens, UniProt P11473); test: VDR transactivation assay (luciferase reporter) in HEK293 cells; format: cell-based
T1 construct: expressed in transfected cells; host or cells: HEK293
T1 sequence (P11473 1-427): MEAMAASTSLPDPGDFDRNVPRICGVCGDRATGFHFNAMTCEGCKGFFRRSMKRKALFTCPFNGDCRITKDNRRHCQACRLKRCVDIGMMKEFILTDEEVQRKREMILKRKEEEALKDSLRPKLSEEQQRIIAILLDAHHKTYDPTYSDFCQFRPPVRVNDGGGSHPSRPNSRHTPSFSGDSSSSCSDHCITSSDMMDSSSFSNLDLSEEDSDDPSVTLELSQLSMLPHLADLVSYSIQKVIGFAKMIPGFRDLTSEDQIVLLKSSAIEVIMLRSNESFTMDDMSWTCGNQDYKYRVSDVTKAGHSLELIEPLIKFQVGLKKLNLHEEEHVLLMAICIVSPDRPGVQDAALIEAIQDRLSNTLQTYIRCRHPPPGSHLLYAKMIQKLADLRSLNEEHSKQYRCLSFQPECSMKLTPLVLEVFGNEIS
Protocol: Human embryonic kidney HEK293 cells (RIKEN Cell Bank, Tsukuba, Japan) were cultured in Dulbecco’s modified Eagle’s medium containing 5% FBS, 100 U/mL penicillin, and 0.1 mg/mL streptomycin (Nacalai Tesque, Kyoto, Japan). Transfections used 15 ng of pCMX-hVDR, 50 ng of TK-Spp × 3-LUC reporter plasmid, and 10 ng of pCMX-β-galactosidase for each well of a 96-well plate, and were performed by the calcium phosphate coprecipitation assay as described previously. Eight hours after transfection, test compounds were added. Cells were harvested after 16–24 h and were assayed for luciferase and β-galactosidase activity using a luminometer and a microplate reader (Molecular Devices, Sunnyvale, CA, USA). Luciferase data were normalized to the internal β-galactosidase control. All experiments were done in triplicate.

[3] = preliminary pharmacokinetics in mice (data not shown); format: in vivo; conditions: preliminary results
[4] = parameters: method as in PMID 33853023; conditions: cited from earlier work
[5] = target: T2, rat VDR LBD (residues 116–423, Δ165–211) (rat, UniProt P13053 116-423, Δ165–211); test: crystal structure; VDR LBD with about 10 equiv of ligand 7b and coactivator peptide (25 mM Tris-HCl, pH 8.0; 50 mM NaCl; 10 mM DTT; 0.02% NaN3); vapor diffusion, 0.2 M potassium citrate tribasic monohydrate, 20% (w/v) PEG3350, 20 °C; 1.94 Å; conditions: both partners purified
T2 construct: Cloned in pET14b; tag removed by thrombin digestion; also called rVDR LBD; source: Escherichia coli C41, purified (Ni-NTA, SP-Sepharose, thrombin digestion, gel filtration); not shown: His6, N-terminal, cleaved
T2 sequence (looked up): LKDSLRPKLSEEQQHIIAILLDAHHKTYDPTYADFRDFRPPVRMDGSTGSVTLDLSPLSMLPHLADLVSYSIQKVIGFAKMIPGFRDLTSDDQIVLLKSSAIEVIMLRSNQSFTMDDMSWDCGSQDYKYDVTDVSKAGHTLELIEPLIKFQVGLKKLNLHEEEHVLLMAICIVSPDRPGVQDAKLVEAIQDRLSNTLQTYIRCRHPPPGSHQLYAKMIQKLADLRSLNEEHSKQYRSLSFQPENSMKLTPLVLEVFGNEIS

[6] = ratio of NBT-positive cells, 4 days incubation, 'Inactive' = no or week active at the concentrations below 1 μM
[7] = HEK293 cells transfected with pCMX-hVDR and TK-Spp×3-LUC reporter, 'Inactive' = no or week active at the concentrations below 1 μM

Molecule | EC50 [1, 6] | EC50 [2, 7] | also measured
C[C@H](CCC(=O)NCS(=O)(=O)O)[C@H]1CC[C@H]2[C@@H]3CC[C@@H]4C[C@H](CC(C)(C)O)CC[C@]4(C)[C@H]3CC[C@]12C [Compound 8a] | 18.5 nM |  | 
C[C@H](CCC(=O)NCCS(=O)(=O)O)[C@H]1CC[C@H]2[C@@H]3CC[C@@H]4C[C@H](CC(C)(C)O)CC[C@]4(C)[C@H]3CC[C@]12C [Compound 8b] | 6.56 nM |  | 
C[C@H](CCC(N)=O)[C@H]1CC[C@H]2[C@@H]3CC[C@@H]4C[C@H](CC(C)(C)O)CC[C@]4(C)[C@H]3CC[C@]12C [Compound 4a] | 0.44 nM | 0.12 nM | 
C[C@H](CCC(=O)NCC(=O)O)[C@H]1CC[C@H]2[C@@H]3CC[C@@H]4C[C@H](CC(C)(C)O)CC[C@]4(C)[C@H]3CC[C@]12C [Compound 7a] | 2.03 nM |  | 
CONC(=O)CC[C@@H](C)[C@H]1CC[C@H]2[C@@H]3CC[C@@H]4C[C@H](CC(C)(C)O)CC[C@]4(C)[C@H]3CC[C@]12C [Compound 5b] | 1.45 nM | 0.14 nM | 
C[C@H](CCC(=O)NO)[C@H]1CC[C@H]2[C@@H]3CC[C@@H]4C[C@H](CC(C)(C)O)CC[C@]4(C)[C@H]3CC[C@]12C [Compound 5a] | 1.18 nM | 0.14 nM | 
C=C1/C(=C\C=C2/CCC[C@]3(C)[C@@H]([C@H](C)CCCC(C)(C)O)CC[C@@H]23)C[C@@H](O)C[C@@H]1O [1α,25(OH)2D3 (1), 1α,25-Dihydroxyvitamin D3, reference compound] |  |  | EC50 [1]: 0.74 nM
C[C@H](CCC(=O)O)[C@H]1CC[C@H]2[C@@H]3CC[C@@H]4C[C@H](CC(C)(C)O)CC[C@]4(C)[C@H]3CC[C@]12C [Compound 3] | 1.01 nM | 0.083 nM | elimination from the serum [3]: eliminated very quickly; calcemic activity compared with 1α,25(OH)2D3 (1) [4]: lower calcemic activity than 1; calcemic activity compared with 1α,25(OH)2D3 (1) ([4]; listed as 3 (Dcha-20)): lower calcemic activity
C[C@H](CCC(=O)NCCC(=O)O)[C@H]1CC[C@H]2[C@@H]3CC[C@@H]4C[C@H](CC(C)(C)O)CC[C@]4(C)[C@H]3CC[C@]12C [Compound 7b] | 0.45 nM | 0.89 nM | 
C[C@H](CCC(=O)O)[C@H]1CC[C@H]2[C@@H]3CC[C@@H]4C[C@H](O)CC[C@]4(C)[C@H]3CC[C@]12C [LCA (2), Lithocholic acid] |  |  | HL-60 Assay EC50 [1, 6]: Inactive ^a; Transactivation Assay EC50 [2, 7]: Inactive ^a; VDR transactivation activity (in words) ([2]; HEK293 cells, LCA: at the concentration below 1 μM): did not show the activity
C[C@H](CCC(=O)NC#N)[C@H]1CC[C@H]2[C@@H]3CC[C@@H]4C[C@H](CC(C)(C)O)CC[C@]4(C)[C@H]3CC[C@]12C [Compound 6] | 0.32 nM | 0.1 nM | 
C[C@H](CCC(=O)NCCCC(=O)O)[C@H]1CC[C@H]2[C@@H]3CC[C@@H]4C[C@H](CC(C)(C)O)CC[C@]4(C)[C@H]3CC[C@]12C [Compound 7c] | 0.64 nM | 0.081 nM | 
CNC(=O)CC[C@@H](C)[C@H]1CC[C@H]2[C@@H]3CC[C@@H]4C[C@H](CC(C)(C)O)CC[C@]4(C)[C@H]3CC[C@]12C [Compound 4b] |  | 0.96 nM | HL-60 Assay EC50 [1, 6]: Inactive ^a
B1 |  |  | binding result [5]: binds
